Test results as given in US20090325208A1 (priority 2006, published 2009).

Assays:
[1] = target: T1, 3-hydroxy-3-methylglutaryl-CoA synthase (HMGS) (Homo sapiens, UniProt Q01581); settings: cited from earlier work
T1 sequence (Q01581 1-520): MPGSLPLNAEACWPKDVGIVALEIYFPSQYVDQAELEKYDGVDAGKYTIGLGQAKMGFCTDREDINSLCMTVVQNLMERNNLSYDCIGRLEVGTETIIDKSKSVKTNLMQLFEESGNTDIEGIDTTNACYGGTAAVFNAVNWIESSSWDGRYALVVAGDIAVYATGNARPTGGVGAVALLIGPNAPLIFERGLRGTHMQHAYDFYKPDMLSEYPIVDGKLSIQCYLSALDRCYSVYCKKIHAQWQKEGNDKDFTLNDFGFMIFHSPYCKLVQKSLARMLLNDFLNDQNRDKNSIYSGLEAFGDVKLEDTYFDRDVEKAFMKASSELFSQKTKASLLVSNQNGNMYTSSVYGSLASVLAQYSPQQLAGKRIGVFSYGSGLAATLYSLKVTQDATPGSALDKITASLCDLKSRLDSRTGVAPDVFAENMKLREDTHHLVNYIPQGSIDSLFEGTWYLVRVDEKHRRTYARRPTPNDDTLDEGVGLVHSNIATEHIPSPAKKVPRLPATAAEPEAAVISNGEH

purified 20S proteasome = purified 20S proteasome (Homo sapiens, UniProt P28074); settings: read-out: IC50 against purified 20S proteasome; cited from earlier work
[2] = system: S. tropica 20S proteasome; assay: 20S Proteasome Activity Assay (Chemicon), cleavage of LLVY-AMC; format: biochemical; settings: preliminary experiments, FIG. 19
Description: (§1) Inhibition of the 20S proteasome will also be measured 20S for all new salinosporamides. The CHEMICON Proteasome Activity Assay Kit by Chemicon International provides a system that is designed to detect the chymotrypsin-like activity of the yeast 20S proteasome through the release of the fluorophore AMC (7-amino-4-methylcoumarin) from the specific substrate Suc-LLVY-AMC after cleavage. AMC can be detected using a fluorometer with a 380 nm excitation and a 460 nm emission filter. For inhibitor screening, the test sample is added to the assay plate and fluorescence read, looking for a reduction in proteasome activity.
(§2) The ubiquitin-proteasome pathway involves the 26S proteasome, which is formed by the barrel-shaped 20S proteasome (about 700 kDa) and two 19S (about 700 kDa) regulatory complexes on each end of the 20S proteasome. […] Cleavage of the free flourophore, 7-Amino-4-methylcoumarin (AMC) from LLVY can be detected and quantified using a 380/460 nm filter set in a flourmeter. […]
(§3) The present invention describes the biosynthesis of SalJ (FIG. 16). […] Yet, the assembled-recombinant 20S proteasome with the SalJ β-subunit (far right two bars) confers resistance to at least SalA as there was no substantial measurable difference in the level of fluorescence of the free AMC (FIG. 19) in the presence or absence of SalA. […]

yeast 20S proteasome = target: T2, yeast 20S proteasome (Saccharomyces cerevisiae, UniProt P30656); assay: as above; format: biochemical; settings: preliminary experiments, FIG. 19
T2 construct: minus the N-terminal propeptide that is cleaved off autocatalytically during assembly; purchased Chemicon International
Description: as §1, §2, §3

[3] = system: assembled 20S proteasome from recombinant subunits containing the SalJ β-subunit; assay: as above; format: biochemical, S. tropica; settings: assembled recombinant 20S proteasome with SalJ β-subunit (Ala→Val at residue 49); FIG. 19
Description: as §1, §2, §3

[4] = system: multiple myeloma cells that have become refractory to bortezomib therapy; settings: cited from earlier work
[5] = system: colon, pancreatic, and lung cancers; settings: cited from earlier work
animal tumor models = settings: cited from earlier work

## CC(=C\C(=O)O)/C=C(\C)C[C@H](C)CCCC[C@H]1OC(=O)[C@@H]1CO [F-244]
[1]
  IC50: 35 nM

## CC(C)[C@H](O)[C@@]12NC(=O)[C@H](C)[C@@H]1OC2=O [omuralide, clasto-lactacystin-β-lactone, reference compound]
Purified 20S proteasome
  IC50: 49 nM

## C[C@@]12OC(=O)[C@]1([C@@H](O)[C@@H]1C=CCCC1)NC(=O)[C@@H]2CCCl [salinosporamide A]
[2]
  inhibition of 20S proteasome (fluorescence of free AMC): inhibited
Yeast 20S proteasome
  inhibition of 20S proteasome (fluorescence of free AMC): inhibited
[3]
  inhibition of 20S proteasome (fluorescence of free AMC): not inhibited
[4]
  induction of apoptosis: induces apoptosis
[5]
  efficacy in animal models: efficacious
Animal tumor models
  oral activity: orally active
  survival: prolongs survival
  tolerability: well tolerated
